Measured values from patent publication US6861071B2, “Highly absorptive solid preparation” (Daiichi Pharmaceutical Co., Ltd., priority 2000, dated 2005).

Test: Promotion of dissolution of sitafloxacin by tartaric acid
Assay type: physicochemical
Description: Accordingly, tartaric acid is preferably added in an amount of 0.1 to 1 mole, preferably 1/6 mole to 0.7 mole, more preferably 0.25 to 0.5 mole, especially about 0.5 mole to 1 mole of a quinolone compound, particularly sitafloxacin.

N[C@@H]1CN(c2c(F)cc3c(=O)c(C(=O)O)cn([C@@H]4C[C@@H]4F)c3c2Cl)CC12CC2 [sitafloxacin, (−)-7-[(7S)-7-amino-5-azaspirol[2.4]heptan-5-yl]-8-chloro-6-fluoro-1-[(1R,2S)-2-fluoro-1-cyclopropyl]-1,4-dihydro-4-oxo-3-quinolinecarboxylic acid]
Effect for promoting dissolution of sitafloxacin (0.1 time molar amount (18.3 mg) of tartaric acid together with 500 mg of sitafloxacin (as an anhydrate)): marked improving effects
Effect for promoting dissolution of sitafloxacin (0.5 time molar amount (92 mg) of tartaric acid in combination with 500 mg of sitafloxacin): effect becomes maximum
